Like-named read-outs stand apart in the source and are kept apart here.
What was measured:
BRAF G466V = target: T1, BRAF G466V (Homo sapiens, UniProt P15056, G466V); experiment: Cellular assay of target protein degradation, T-Rex 293 cells stably transfected with HA-BRAF G466V (HA immunofluorescence, high content imaging); type: cell-based
T1 construct: expressed in transfected cells
Protocol: Protocol for a cellular assay of target protein degradation (T-Rex 293 cells). T-Rex 293 cells were purchased from Invitrogen (#R71007), and stably transfected with a pcDNA4/TO_HA-BRAF G466V construct, using 400 ug Zeocin for selection. G466V cells are plated in Dulbecco's Modified Eagle Medium (DMEM; Gibco #11965118) containing 10% fetal bovine serum (FBS; Gibco #16000044) and 0.75 ng/mL doxycycline (Selleckchem #4163) at a density of 5,000 cells/well in 50 μl on poly-D-lysine (PDL) coated, black clear bottom 96-well plates (Corning #354640) and incubated for 24 hours at 37° C. with 5% CO2. The following day 50 ul of tested compound was added at 2x concentration in DMEM with a final concentration ranging from 30 nM to 3 pM in 0.1% dimethylsulfoxide (DMSO), and incubated for 24 hours at 37° C. with 5% CO2. At the end of the experimental treatment, the media was flicked off and cells washed once with phosphate-buffered saline (PBS)++ (PBS with CaCl and MgCl) and gently replacing with 200 μl PBS++ per well. The PBS++ was removed and 50 uL 4% paraformaldehyde (PFA; EMS #15710) in PBS++ was added, and incubate at room temperature for 15 minutes. Cells were washed once with PBS++ and 50 uL 0.1% Triton X-100 (Fisher #BP151-500) in PBS++ was added. Plate was incubate for 5 minutes at room temperature. Cells were was once with PBS++. Cells were blocked with 100 uL Licor blocking buffer (Licor #927-50000) for 1 hour at room temperature. Next, 50 uL of HA antibody (CST #3724) at 1:1000 in Licor blocking buffer was added, and the plate incubate overnight at 4° C. The plates were parafilmed to prevent evaporation. Plate was washed three times with 200 uL PBS++. Fifty microliters of HCS secondary antibody solution [1:1000 Hoechst (Invitrogen #H3570), 1:1000 phalloidin (Invitrogen #A22287) and 1:5000 Alexa fluor (Invitrogen #A11008)] was added and incubated for 1 hour. Plate was wash three times with 200 uL PBS++, and imaged on a high content reader (ImageXpress Micro XLS, Molecular Devices).
(§1) The concentration of exemplary compound that leads to half maximal degradation (DC50) as well as the maximum degradation observed (Dmax, conventionally expressed as a percentage of control), which are below in Table 2 for the exemplary compounds of Table 1.

BRAF V600E = target: T2, BRAF V600E (Homo sapiens, UniProt P15056, V600E); experiment: Cellular assay of target protein degradation, T-Rex 293 cells stably transfected with HA-BRAF_V600E (HA immunofluorescence, high content imaging); type: cell-based
T2 construct: expressed in transfected cells
Protocol: Protocol for a cellular assay of target protein degradation (T-Rex 293 cells). T-Rex 293 cells were purchased from Invitrogen (#R71007), and stably transfected with a pcDNA4/TO_HA-BRAF_V600E construct, using 400 ug Zeocin for selection. V600e cells are plated in Dulbecco's Modified Eagle Medium (DMEM; Gibco #11965118) containing 10% fetal bovine serum (FBS; Gibco #16000044) and 1 ng/mL doxycycline (Selleckchem #4163) at a density of 5,000 cells/well in 50 μl on poly-D-lysine (PDL) coated, black clear bottom 96-well plates (Corning #354640) and incubated for 24 hours at 37° C. with 5% C02. The following day 50 ul of tested compound was added at 2x concentration in DMEM with a final concentration ranging from 1 μM to 0.1 nM in 0.1% dimethylsulfoxide (DMSO), and incubated for 24 hours at 37° C. with 5% CO2. At the end of the experimental treatment, the media was flicked off and cells washed once with phosphate-buffered saline (PBS)++ (PBS with CaCl and MgCl) and gently replacing with 200 μl PBS++ per well. The PBS++ was removed and 50 uL 4% paraformaldehyde (PFA; EMS #15710) in PBS++ was added, and incubate at room temperature for 15 minutes. Cells were washed once with PBS++ and 50 uL 0.1% Triton X-100 (Fisher #BP151-500) in PBS++ was added. Plate was incubate for 5 minutes at room temperature. Cells were was once with PBS++. Cells were blocked with 100 uL Licor blocking buffer (Licor #927-50000) for 1 hour at room temperature. Next, 50 uL of HA antibody (CST #3724) at 1:1000 in Licor blocking buffer was added, and the plate incubate overnight at 4° C. The plates were parafilmed to prevent evaporation. Plate was washed three times with 200 uL PBS++. Fifty microliters of HCS secondary antibody solution [1:1000 Hoechst (Invitrogen #H3570), 1:1000 phalloidin (Invitrogen #A22287) and 1:5000 Alexa fluor (Invitrogen #A11008)] was added and incubated for 1 hour. Plate was wash three times with 200 uL PBS++, and imaged on a high content reader (ImageXpress Micro XLS, Molecular Devices).
as §1

[1] = half maximal degradation, T-Rex 293 HA-BRAF G466V; read-out: BRaf G466V DC50
[2] = maximum degradation observed, T-Rex 293 HA-BRAF G466V
[3] = half maximal degradation, T-Rex 293 HA-BRAF V600E; read-out: BRaf V600E DC50
[4] = maximum degradation observed, T-Rex 293 HA-BRAF V600E

T2 sequence (P15056 whole entry V600E): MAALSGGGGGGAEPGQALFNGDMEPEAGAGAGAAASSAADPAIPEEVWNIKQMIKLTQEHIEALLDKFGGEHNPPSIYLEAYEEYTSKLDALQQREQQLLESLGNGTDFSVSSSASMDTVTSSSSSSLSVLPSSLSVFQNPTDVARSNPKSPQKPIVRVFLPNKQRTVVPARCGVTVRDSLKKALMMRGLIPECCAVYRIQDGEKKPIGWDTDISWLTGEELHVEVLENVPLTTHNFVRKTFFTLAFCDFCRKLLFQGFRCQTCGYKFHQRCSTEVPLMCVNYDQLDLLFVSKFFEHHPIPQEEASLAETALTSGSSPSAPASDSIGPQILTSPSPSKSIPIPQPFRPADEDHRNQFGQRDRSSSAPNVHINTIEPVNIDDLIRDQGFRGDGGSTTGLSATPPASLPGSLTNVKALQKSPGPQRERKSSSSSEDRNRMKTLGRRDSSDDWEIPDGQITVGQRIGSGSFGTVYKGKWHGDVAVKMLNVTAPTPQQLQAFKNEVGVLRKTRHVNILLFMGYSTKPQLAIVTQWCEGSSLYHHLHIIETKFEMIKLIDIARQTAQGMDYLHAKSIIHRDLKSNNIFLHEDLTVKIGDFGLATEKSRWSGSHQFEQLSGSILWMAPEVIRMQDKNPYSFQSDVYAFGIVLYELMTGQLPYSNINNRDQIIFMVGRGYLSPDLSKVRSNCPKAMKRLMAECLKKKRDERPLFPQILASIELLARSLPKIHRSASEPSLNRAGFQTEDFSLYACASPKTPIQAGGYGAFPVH
T1 sequence (P15056 whole entry G466V): as the sequence (P15056 whole entry V600E) above, with G466V, E600V counted along it

DC50 (BRAF G466V; [1]) [nM]	Dmax (BRAF G466V; [2]) [%]	DC50 (BRAF V600E; [3]) [nM]	Dmax (BRAF V600E; [4]) [%]	Structure (SMILES)	DC50 (BRAF G466V; read-out: BRaf G466V DC50; half maximal degradation, T-Rex 293 HA-BRAF G466V) [nM]	DC50 (BRAF V600E; read-out: BRaf V600E DC50; half maximal degradation, T-Rex 293 HA-BRAF V600E) [nM]
< 1	> 70	5 to 50	35 to 70	O=C1CCC(N2Cc3cc(N4CCC(CN5CCN(c6ccc(-c7cnc8[nH]cc(C(=O)c9c(F)ccc(NS(=O)(=O)N%10CC[C@@H](F)C%10)c9F)c8c7)cn6)CC5)CC4)ccc3C2=O)C(=O)N1 (stereo partly drawn) [Compound 25, (3R)-N-[3-(5-{6-[4-({1-[2-(2,6-dioxopiperidin-3-yl)-1-oxo-2,3-dihydro-1H-isoindol-5-yl]piperidin-4-yl}methyl)piperazin-1-yl]pyridin-3-yl}-1H-pyrrolo[2,3-b]pyridine-3-carbonyl)-2,4-difluorophenyl]-3-fluoropyrrolidine-1-sulfonamide]		
1 to 10	< 35	> 500		O=C1CCC(N2Cc3cc(N4CCN(CC5CCN(c6ccc(-c7cnc8[nH]cc(C(=O)c9c(F)ccc(NS(=O)(=O)N%10CC[C@@H](F)C%10)c9F)c8c7)cc6)CC5)CC(F)(F)C4)ccc3C2=O)C(=O)N1 (stereo partly drawn) [Compound 333, (3R)-N-[3-(5-{4-[4-({4-[2-(2,6-dioxopiperidin-3-yl)-1-oxo-2,3-dihydro-1H-isoindol-5-yl]-6,6-difluoro-1,4-diazepan-1-yl}methyl)piperidin-1-yl]phenyl}-1H-pyrrolo[2,3-b]pyridine-3-carbonyl)-2,4-difluorophenyl]-3-fluoropyrrolidine-1-sulfonamide]		
< 1	> 70	5 to 50	35 to 70	N#Cc1cc(-c2cnc3[nH]cc(C(=O)c4c(F)ccc(NS(=O)(=O)N5CC[C@@H](F)C5)c4F)c3c2)ccc1N1CCC(CN2CCC(c3ccc4c(c3)CN(C3CCC(=O)NC3=O)C4=O)CC2)CC1 (stereo partly drawn) [Compound 255, (3R)-N-[3-(5-{3-cyano-4-[4-({4-[2-(2,6-dioxopiperidin-3-yl)-1-oxo-2,3-dihydro-1H-isoindol-5-yl]piperidin-1-yl}methyl)piperidin-1-yl]phenyl}-1H-pyrrolo [2,3-b]pyridine-3-carbonyl)-2,4-difluorophenyl]-3-fluoropyrrolidine-1-sulfonamide]		
1 to 10	> 70	5 to 50	35 to 70	O=C1CCC(N2Cc3cc(N4CCN(CC5CN(c6ncc(-c7cnc8[nH]cc(C(=O)c9c(F)ccc(NS(=O)(=O)N%10CC[C@@H](F)C%10)c9F)c8c7)cn6)C5)CC4)ccc3C2=O)C(=O)N1 (stereo partly drawn) [Compound 91, (3R)-N-[3-(5-{2-[3-({4-[2-(2,6-dioxopiperidin-3-yl)-1-oxo-2,3-dihydro-1H-isoindol-5-yl]piperazin-1-yl}methyl)azetidin-1-yl]pyrimidin-5-yl}-1H-pyrrolo[2,3-b]pyridine-3-carbonyl)-2,4-difluorophenyl]-3-fluoropyrrolidine-1-sulfonamide]		
1 to 10	35 to 70	< 5	35 to 70	O=C1CCC(N2Cc3cc(C(O)CN4CCN(c5ccc(-c6cnc7[nH]cc(C(=O)c8c(F)ccc(NS(=O)(=O)N9CC[C@@H](F)C9)c8F)c7c6)cc5)CC4)ccc3C2=O)C(=O)N1 (stereo partly drawn) [Compound 32, (3R)-N-(3-{5-[4-(4-{2-[2-(2,6-dioxopiperidin-3-yl)-1-oxo-2,3-dihydro-1H-isoindol-5-yl]-2-hydroxyethyl}piperazin-1-yl)phenyl]-1H-pyrrolo[2,3-b]pyridin-3-carbonyl}-2,4-difluorophenyl)-3-fluoropyrrolidine-1-sulfonamide]		
1 to 10	35 to 70	50 to 500	< 35	O=C1CCC(N2Cc3cc(N4CC5(CCN(CC#Cc6ccc(-c7cnc8[nH]cc(C(=O)c9c(F)ccc(NS(=O)(=O)N%10CC[C@@H](F)C%10)c9F)c8c7)cc6)C5)C4)ccc3C2=O)C(=O)N1 (stereo partly drawn) [Compound 4, (3R)-N-(3-{5-[4-(3-{2-[2-(2,6-dioxopiperidin-3-yl)-1-oxo-2,3-dihydro-1H-isoindol-5-yl]-2,6-diazaspiro[3.4]octan-6-yl}prop-1-yn-1-yl)phenyl]-1H-pyrrolo [2,3-b]pyridine-3-carbonyl}-2,4-difluorophenyl)-3-fluoropyrrolidine-1-sulfonamide]		
1 to 10	> 70	5 to 50	35 to 70	CCCS(=O)(=O)Nc1ccc(F)c(C(=O)c2c[nH]c3ncc(-c4ccc(N5CCC(CN6CCN(c7ccc8c(c7)CN([C@H]7CCC(=O)NC7=O)C8=O)CC6)CC5)cc4)cc23)c1F [Compound 245, N-{3-[5-(4-{4-[(4-{2-[(3S)-2,6-dioxopiperidin-3-yl]-1-oxo-2,3-dihydro-1H-isoindol-5-yl}piperazin-1-yl)methyl]piperidin-1-yl}phenyl)-1H-pyrrolo[2,3-b]pyridine-3-carbonyl]-2,4-difluorophenyl}propane-1-sulfonamide]		
1 to 10	> 70	50 to 500	35 to 70	O=C1CCC(N2Cc3cc(C4CCN(CCc5ccc(-c6cnc7[nH]cc(C(=O)c8c(F)ccc(NS(=O)(=O)N9CC[C@@H](F)C9)c8F)c7c6)cc5)[C@H](CO)C4)ccc3C2=O)C(=O)N1 (stereo partly drawn) [Compound 149, (3R)-N-{3-[5-(4-{2-[(2S)-4-[2-(2,6-dioxopiperidin-3-yl)-1-oxo-2,3-dihydro-1H-isoindol-5-yl]-2-(hydroxymethyl)piperidin-1-yl]ethyl}phenyl)-1H-pyrrolo[2,3-b]pyridine-3-carbonyl]-2,4-difluorophenyl}-3-fluoropyrrolidine-1-sulfonamide]		
		< 5	< 35	O=C1CCC(N2Cc3cc(N4CCC(CN5CCC6(CCN(c7ncc(-c8cnc9[nH]cc(C(=O)c%10c(F)ccc(NS(=O)(=O)N%11CC[C@@H](F)C%11)c%10F)c9c8)cn7)CC6)C5)CC4)ccc3C2=O)C(=O)N1 (stereo partly drawn) [Compound 96, (3R)-N-[3-(5-{2-[2-({1-[2-(2,6-dioxopiperidin-3-yl)-1-oxo-2,3-dihydro-1H-isoindol-5-yl]piperidin-4-yl}methyl)-2,8-diazaspiro[4.5]decan-8-yl]pyrimidin-5-yl}-1H-pyrrolo[2,3-b]pyridine-3-carbonyl)-2,4-difluorophenyl]-3-fluoropyrrolidine-1-sulfonamide]		

Structure (SMILES)	DC50 (BRAF G466V; [1]) [nM]	Dmax (BRAF G466V; [2]) [%]	DC50 (BRAF V600E; [3]) [nM]	Dmax (BRAF V600E; [4]) [%]	DC50 (BRAF G466V; read-out: BRaf G466V DC50; half maximal degradation, T-Rex 293 HA-BRAF G466V) [nM]	DC50 (BRAF V600E; read-out: BRaf V600E DC50; half maximal degradation, T-Rex 293 HA-BRAF V600E) [nM]
CC(C)(C1CCN(c2ccc(-c3cnc4[nH]cc(C(=O)c5c(F)ccc(NS(=O)(=O)N6CC[C@@H](F)C6)c5F)c4c3)cc2)CC1)N1CC2(CN(c3ccc4c(c3)CN(C3CCC(=O)NC3=O)C4=O)C2)C1 (stereo partly drawn) [Compound 60, (3R)-N-[3-(5-{4-[4-(2-{6-[2-(2,6-dioxopiperidin-3-yl)-1-oxo-2,3-dihydro-1H-isoindol-5-yl]-2,6-diazaspiro[3.3]heptan-2-yl}propan-2-yl)piperidin-1-yl]phenyl}-1H-pyrrolo[2,3-b]pyridine-3-carbonyl)-2,4-difluorophenyl]-3-fluoropyrrolidine-1-sulfonamide]		> 70		35 to 70	1 to 10	5 to 50
